Key:
[1] = target: T1, Peptide Deformylase (PDF) (Staphylococcus aureus, UniProt P68826); assay: Bacterial peptide deformylase (PDF) assay, colorimetric cell free, enzyme from S. aureus; format: biochemical; conditions: f-Met-Ala substrate, TNBS detection at 420 nm
T1 construct: made in house
T1 sequence (P68826 1-183): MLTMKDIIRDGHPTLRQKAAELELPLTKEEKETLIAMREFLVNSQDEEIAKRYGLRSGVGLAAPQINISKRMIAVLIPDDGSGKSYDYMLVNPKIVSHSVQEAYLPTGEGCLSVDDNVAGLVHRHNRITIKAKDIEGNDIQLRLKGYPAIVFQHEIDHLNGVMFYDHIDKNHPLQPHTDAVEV
Source text: (§1) To find inhibitors of Peptide Deformylase (PDF), a colorimetric cell free assay for measuring the enzymatic activity of PDF has been adapted to the microtiter plate format (96 wells). The assay comprises three components, purified PDF, f-Met-Ala as substrate and TNBS as the detecting agent of primary amino groups. The resulting TNP_NH-Met-Ala sulfite complex can be detected at 420 nm. PDF enzymes, containing Fe^2+ as the native metal, are purified and are stabilized by the addition of tris(2-carboxyethyl)phosphine (TCEP).
(§2) The IC50 value of a compound of the invention as a bacterial PDF inhibitor was determined using the following assay.
(§3) Assay buffer 0.1 M MOPS pH was adjusted to 7.2 with NaOH, containing 0.25 M NaCl, 100 μg/mL catalase and 1 mg/mL BSA.
(§4) E. coli enzyme (2.5 mg/ml) 10 μl+290 μl Assay buffer, 1 μl per ml enzyme mix. S. aureus (15 mg/ml) 10 μl+990 μl Assay buffer, 0.3 μl per ml enzyme mix.
(§5) Substrate mix: 10 mM f-Met-Ala was made up from 200 mM f-Met-Ala in methanol with assay buffer.
(§6) TNBS solution: Freshly dilute 1 M TNBS stock solution diluted 1:10 with water.
(§7) Buffer C: 0.5 M borate buffer adjusted to pH 9.5 with NaOH.
(§8) Buffer D: 0.2 ml of freshly prepared 0.5 M Na2SO3 was mixed with 9.8 mL of 0.5M NaH2PO4.
(§9) Inhibitor solution: 2 mM Sodium 4-(hydroxymercurio)benzoate in assay buffer.
(§10) Compound mix: Compound of formula I dissolved in DMSO in a 10 mg/mL stock solution. Further dilutions were made in DMSO in the concentration range between 0.05 to 100 mM.
(§11) The assay was performed in a 96 Microtiter plate containing test compound. To each well containing test compound mix was added 75 microliter of enzyme mix from E. coli followed by the addition of 25 microliter of substrate mix. The resulting mix was incubated for 30 minutes at room temperature with shaking. TNBS solution (50 microliter/well) was added and the resulting mixture was incubated for 15 minutes under shaking. Buffer C was then added (20 microliter/well). After incubating at room temperature for 15 minutes under shaking, buffer D was added (50 microliter/well). The optical […] was then measured at 420 nm, thereby determining the IC50 value.
The assay was repeated using enzyme mix from S. aureus.

[2] = target: T2, Peptide Deformylase (PDF) (Escherichia coli, UniProt P0A6K3); assay: Bacterial peptide deformylase (PDF) assay, colorimetric cell free, enzyme from E. coli; format: biochemical
T2 construct: made in house
T2 sequence (P0A6K3 whole entry): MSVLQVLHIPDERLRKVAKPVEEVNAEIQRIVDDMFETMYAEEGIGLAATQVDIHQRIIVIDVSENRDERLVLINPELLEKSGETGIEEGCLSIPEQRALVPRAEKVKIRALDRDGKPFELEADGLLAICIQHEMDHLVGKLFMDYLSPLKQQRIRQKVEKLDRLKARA
Source text: as §1, §2, §3, §4, §5, §6, §7, §8, §9, §10, §11

COC(=O)CNC(=O)c1ccc2c(c1)nc(C(CCCCN)NC(=O)CCC(=O)O)n2CC1CCCCC1 (centres unmarked) [Example 24, N-{5-Amino-1-[1-cyclohexylmethyl-5-(methoxycarbonylmethyl-carbamoyl)-1H-benzoimidazol-2-yl]-pentyl}-succinamic acid]
IC50 [1]: 1.4 µM | IC50 [2]: 13.1 µM

CCC(NC(=O)CCC(=O)NO)c1nc2cc(C(=O)NCC(=O)OC)ccc2n1Cc1ccccc1 (centres unmarked) [Example 32, ({1-Benzyl-2-[1-(3-hydroxycarbamoyl-propionylamino)-propyl]-1H-benzoimidazole-5-carbonyl}-amino)-acetic acid methyl ester]
IC50 [1]: 0.067 µM | IC50 [2]: 0.045 µM

CCC(NC(=O)CCC(=O)O)c1nc2cc(C(=O)NCC(=O)OC)ccc2n1Cc1ccco1 (centres unmarked) [Example 11, N-{1-[1-Furan-2-ylmethyl-5-(methoxycarbonylmethyl-carbamoyl)-1H-benzoimidazol-2-yl]-propyl}-succinamic acid]
IC50 [1]: 1.4 µM | IC50 [2]: 2.8 µM

COC(=O)CNC(=O)c1ccc2c(c1)nc(C(CCc1ccccc1)NC(=O)CCC(=O)O)n2CC1CCCCC1 (centres unmarked) [Example 8, N-{1-[1-Cyclohexylmethyl-5-(methoxycarbonylmethyl-carbamoyl)-1H-benzoimidazol-2-yl]-3-phenyl-propyl}-succinamic acid]
IC50 [1]: 15.1 µM | IC50 [2]: 29.8 µM

COC(=O)CNC(=O)c1ccc2c(c1)nc(C(CCSC)NC(=O)CCC(=O)NO)n2Cc1ccccc1 (centres unmarked) [Example 38]
IC50 [1]: 3.5 µM | IC50 [2]: 25.8 µM

CCC(NC(=O)CCC(=O)NO)c1nc2cc(C(=O)NCC(=O)OC)ccc2n1Cc1ccco1 (centres unmarked) [Example 31, ({1-Furan-2-ylmethyl-2-[1-(3-hydroxycarbamoyl-propionylamino)-propyl]-1H-benzoimidazole-5-carbonyl}-amino)-acetic acid methyl ester]
IC50 [1]: 0.151 µM | IC50 [2]: 0.098 µM

COC(=O)CNC(=O)c1ccc2c(c1)nc(C(CCSC)NC(=O)CCC(=O)O)n2C1CC1 (centres unmarked) [Example 16, N-{1-[1-Cyclopropyl-5-(methoxycarbonylmethyl-carbamoyl)-1H-benzoimidazol-2-yl]-3-methylsulfanyl-propyl}-succinamic acid]
IC50 [1]: 17.6 µM | IC50 [2]: 47.2 µM

COC(=O)CNC(=O)c1ccc2c(c1)nc(C(CCCCN)NC(=O)CCS)n2CC1CCCCC1 (centres unmarked) [Example 19, ({2-[5-Amino-1-(3-mercapto-propionylamino)-pentyl]-1-cyclohexylmethyl-1H-benzoimidazole-5-carbonyl}-amino)-acetic acid methyl ester]
IC50 [1]: 27.1 µM | IC50 [2]: 38.1 µM

COC(=O)CNC(=O)c1ccc2c(c1)nc(C(Cc1ccccc1)NC(=O)CCC(=O)O)n2CCO (centres unmarked) [Example 27, N-{1-[1-(2-Hydroxy-ethyl)-5-(methoxycarbonylmethyl-carbamoyl)-1H-benzoimidazol-2-yl]-2-phenyl-ethyl}-succinamic acid]
IC50 [1]: 27.7 µM | IC50 [2]: 41.8 µM

COC(=O)CNC(=O)c1ccc2c(c1)nc(C(Cc1ccc(O)cc1)NC(=O)CCS)n2C1CC1 (centres unmarked) [Example 20, ({1-Cyclopropyl-2-[2-(4-hydroxy-phenyl)-1-(3-mercapto-propionylamino)-ethyl]-1H-benzoimidazole-5-carbonyl}-amino)-acetic acid methyl ester]
IC50 [1]: > 200 µM | IC50 [2]: > 200 µM

CCC(NC(=O)CCC(=O)NO)c1nc2cc(C(=O)NCC(=O)OC)ccc2n1C1CC1 (centres unmarked) [Example 29, ({1-Cyclopropyl-2-[1-(3-hydroxycarbamoyl-propionylamino)-propyl]-1H-benzoimidazole-5-carbonyl}-amino)-acetic acid methyl ester]
IC50 [1]: 0.105 µM | IC50 [2]: 0.079 µM

COC(=O)CNC(=O)c1ccc2c(c1)nc(C(Cc1ccc(O)cc1)NC(=O)CCC(=O)O)n2CC1CCCCC1 (centres unmarked) [Example 26, N-[1-[1-Cyclohexylmethyl-5-(methoxycarbonylmethyl-carbamoyl)-1H-benzoimidazol-2-yl]-2-(4-hydroxyphenyl)-ethyl]-succinamic acid]
IC50 [1]: 25 µM | IC50 [2]: 35.2 µM

COC(=O)CNC(=O)c1ccc2c(c1)nc(C(CCc1ccccc1)NC(=O)CCC(=O)NO)n2C1CC1 (centres unmarked) [Example 41, ({1-Cyclopropyl-2-[1-(3-hydroxycarbamoyl-propionylamino)-3-phenyl-propyl]-1H-benzoimidazole-5-carbonyl}-amino)-acetic acid methyl ester]
IC50 [1]: 0.363 µM | IC50 [2]: 2.3 µM

COC(=O)CNC(=O)c1ccc2c(c1)nc(C(CCc1ccccc1)NC(=O)CCC(=O)O)n2C1CC1 (centres unmarked) [Example 7, N-{1-[1-Cyclopropyl-5-(methoxycarbonylmethyl-carbamoyl)-1H-benzoimidazol-2-yl]-3-phenyl-propyl}-succinamic acid]
IC50 [1]: 2.7 µM | IC50 [2]: 2.6 µM

COC(=O)CNC(=O)c1ccc2c(c1)nc(C(CC(C)C)NC(=O)CCC(=O)O)n2Cc1ccccc1 (centres unmarked) [Example 15, N-{1-[1-Benzyl-5-(methoxycarbonylmethyl-carbamoyl)-1H-benzoimidazol-2-yl]-3-methyl-butyl}-succinamic acid]
IC50 [1]: 4 µM | IC50 [2]: 3.3 µM

COC(=O)CNC(=O)c1ccc2c(c1)nc(C(Cc1ccccc1)NC(=O)CCC(=O)O)n2Cc1ccc(Cl)cc1 (centres unmarked) [Example 6, N-{1-[1-(4-Chloro-benzyl)-5-(methoxycarbonylmethyl-carbamoyl)-1H-benzoimidazol-2-yl]-2-phenyl-ethyl}-succinamic acid]
IC50 [1]: 0.093 µM | IC50 [2]: 1.3 µM

CCCCn1c(C(Cc2ccccc2)NC(=O)CCC(=O)NO)nc2cc(C(=O)NCC(=O)OC)ccc21 (centres unmarked) [Example 47, ({1-Butyl-2-[1-(3-hydroxycarbamoyl-propionylamino)-2-phenyl-ethyl]-1H-benzoimidazole-5-carbonyl}-amino)-acetic acid methyl ester]
IC50 [1]: 0.019 µM | IC50 [2]: 5.3 µM

CCCCn1c(C(Cc2ccccc2)NC(=O)CCC(=O)O)nc2cc(C(=O)NCC(=O)OC)ccc21 (centres unmarked) [Example 4, N-{1-[1-Butyl-5-(methoxycarbonylmethyl-carbamoyl)-1H-benzoimidazol-2-yl]-2-phenyl-ethyl}-succinamic acid]
IC50 [1]: 1 µM | IC50 [2]: 2.8 µM

COC(=O)CNC(=O)c1ccc2c(c1)nc(C(Cc1ccc(O)cc1)NC(=O)CCC(=O)O)n2C1CC1 (centres unmarked) [Example 25, N-[1-[1-Cyclopropyl-5-(methoxycarbonylmethyl-carbamoyl)-1H-benzoimidazol-2-yl]-2-(4-hydroxyphenyl)-ethyl]-succinamic acid]
IC50 [1]: 28.3 µM | IC50 [2]: 12.8 µM

COC(=O)CNC(=O)c1ccc2c(c1)nc(C(Cc1ccccc1)NC(=O)CCS)n2CCN (centres unmarked) [Example 50, ({1-(2-Amino-ethyl)-2-[1-(3-mercapto-propionylamino)-2-phenyl-ethyl]-1H-benzoimidazole-5-carbonyl}-amino)-acetic acid methyl ester]
IC50 [1]: 3.8 µM | IC50 [2]: 7.2 µM

CCC(NC(=O)CCC(=O)O)c1nc2cc(C(=O)NCC(=O)OC)ccc2n1Cc1ccccc1 (centres unmarked) [Example 12, N-{1-[1-Benzyl-5-(methoxycarbonylmethyl-carbamoyl)-1H-benzoimidazol-2-yl]-propyl}-succinamic acid]
IC50 [1]: 0.068 µM | IC50 [2]: 4.8 µM

COC(=O)CNC(=O)c1ccc2c(c1)nc(C(Cc1ccccc1)NC(=O)CCC(=O)NO)n2CCN (centres unmarked) [Example 56, ({1-(2-Amino-ethyl)-2-[1-(3-hydroxycarbamoyl-propionylamino)-2-phenyl-ethyl]-1H-benzoimidazole-5-carbonyl}-amino)-acetic acid methyl ester]
IC50 [1]: 1.6 µM | IC50 [2]: 2 µM
